This passage reports IC50 and Ki results from patent US20240132514A1, “PYRIDINE DERIVATIVES AS MODULATORS OF SORTILIN ACTIVITY” (Insusense ApS, priority 2021, published 2024).

Where two headings read alike, the source gives them in different places.

The target of this assay is human full length sortilin (Homo sapiens (Human), UniProt Q99523). The assay is described as follows: Human sortilin neurotensin scintillation proximity (SPA) binding assay. Particulars: for IC50: 150 nM His-tagged human full length sortilin, SPA. The method, then:
NTS, which is a 13 amino acid neuropeptide, is a sortilin ligand. The IC50 is a measure of the amount of the compound required to inhibit the binding of NTS to sortilin by 50%. The skilled person will recognise that the lower the IC50 value, the less of the compound needed to achieve the desired effect, and as a result, the chances of undesirable off-target effects are reduced.
The compound affinity was determined by measuring the inhibition of ^3H-neurotensin and/or ^125I-neurotensin binding to human full length sortilin using a Scintillation Proximity Assay (SPA) format.
The human sortilin SPA binding assay was performed in a total volume of 40 μl in 50 mM HEPES pH 7.4 assay buffer containing 100 mM NaCl, 2.0 mM CaCl2, 0.1% (v:v) BSA and 0.1% (v:v)Tween-20. Varying concentration of test compounds where pre-incubated for 30 min at RT with 150 nM of c-terminal hexahistidine- human full length Sortilin (RD Systems). […] 0.1 mg PVT copper HIS-tag imaging beads (Perkin Elmer) was added and the plate was agitated at 400 rpm in the dark for 1 hr. The SPA beads were allowed a minimum 2 hours settling time before the plate was read on a Hidex Sense 425-301 scintillation reader with a 45 sec exposure time. Concentration-response evaluation of test compounds was performed with 8 different concentrations of compound (covering 3 decades). […] The compound potency results were converted to inhibition constant Ki values (nM) derived from calculated IC50 values converted to Ki values using the Cheng-Prusoff equation (Ki=IC50/(I+(L/Kd))).

The mark [1] stands for this setting: 5 nM [3H]-Neurotensin radioligand, read-out: hSortilin NTS Binding IC50 (nM) [3H] neurotensin.

Chain of human full length sortilin (Q99523 78-755): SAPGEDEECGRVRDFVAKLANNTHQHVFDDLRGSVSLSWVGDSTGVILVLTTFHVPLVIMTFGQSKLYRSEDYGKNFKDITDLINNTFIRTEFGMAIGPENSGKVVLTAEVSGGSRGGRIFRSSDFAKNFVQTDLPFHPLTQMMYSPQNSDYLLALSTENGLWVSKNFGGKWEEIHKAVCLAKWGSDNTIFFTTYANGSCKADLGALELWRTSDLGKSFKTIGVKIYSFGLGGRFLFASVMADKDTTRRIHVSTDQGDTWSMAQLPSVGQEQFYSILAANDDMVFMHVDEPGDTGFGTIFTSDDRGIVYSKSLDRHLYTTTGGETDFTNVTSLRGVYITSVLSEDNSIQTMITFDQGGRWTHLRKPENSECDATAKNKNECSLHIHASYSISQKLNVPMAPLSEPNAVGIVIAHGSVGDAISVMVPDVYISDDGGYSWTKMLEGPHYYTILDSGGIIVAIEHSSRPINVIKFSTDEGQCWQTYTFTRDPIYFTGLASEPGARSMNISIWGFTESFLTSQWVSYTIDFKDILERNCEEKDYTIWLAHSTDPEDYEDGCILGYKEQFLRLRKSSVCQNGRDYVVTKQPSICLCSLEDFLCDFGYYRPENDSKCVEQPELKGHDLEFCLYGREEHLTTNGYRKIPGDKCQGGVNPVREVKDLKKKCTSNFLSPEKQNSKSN

In the case of `O=C(O)c1cc(C(F)(F)F)ccc1C(=O)Nc1cccc(CO)n1` [Example 3, 2-{[6-(hydroxymethyl)pyridin-2-yl]carbamoyl}-5-(trifluoromethyl)benzoic acid], the half-inhibitory concentration (IC50) under setting [1] is 340 nM. The Ki (derived from IC50 using the Cheng-Prusoff equation, Kd of neurotensin […], read-out: hSortilin Ki) turned out to be 340 nM. For the compound `COCc1cccc(NC(=O)c2ccc(C(F)(F)F)cc2C(=O)O)n1` [Example 24, 2-{[6-(methoxymethyl)pyridin-2-yl]carbamoyl}-5-(trifluoromethyl)benzoic acid], the half-inhibitory concentration (IC50) under setting [1] was determined as 725 nM.

Regarding `O=C(O)c1cc(C(F)(F)F)ccc1C(=O)Nc1ccc2c(n1)COCC2` [Example 2, 2-({5H,6H,8H-pyrano[3,4-b]pyridin-2-yl}carbamoyl)-5-(trifluoromethyl)benzoic acid], the IC50 runs as follows: (0.35 nM [125I]-Neurotensin radioligand, read-out: hSortilin NTS binding IC50 (nM) [125I] neurotensin) 105 nM; under setting [1], 60 nM.
